In PubChem BioAssay (NCI):
“And” between values parts separate entries of the source, which are not always exact repeats. Identical values can stand only once.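 Tested at 5 concentrations; 48 h exposure; 96-well plates; endpoints linearly interpolated, else capped at highest concentration. GI50 marks 50% less growth. Definition used: TGI = concentration required for complete inhibition of growth.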

Assays:
Test in all cases: DTP human tumour cell line panel, 48 h
[1] = tested on: HOP-62 NSCLC
[2] = tested on: MOLT-4 leukemia
[3] = tested on: OVCAR-5 ovarian
[4] = tested on: UACC-257 melanoma
[5] = tested on: HT29 colon
[6] = tested on: NCI-H226 lung
[7] = tested on: HOP-92 NSCLC
[8] = tested on: HS 578T breast

COc1ccc2c(c1O)[C@@]13CCCC=C1[C@@H](C2)N(C)CC3
TGI [1]: > 100 µM
TGI [2]: > 100 µM
TGI [3]: > 100 µM
TGI [4]: > 100 µM
TGI [5]: > 100 µM
TGI [6]: > 100 µM
TGI [7]: > 100 µM
TGI [8]: > 100 µM

COc1cc(/C=N\Nc2ccccc2)ccc1OC(=O)c1ccccc1
GI50 [1]: 8.38 µM
TGI [1]: > 64.7 µM
GI50 [2]: 1.94 µM
TGI [2]: > 100 µM
GI50 [3]: 12.8 µM
TGI [3]: > 100 µM
GI50 [4]: 7.12 µM
TGI [4]: > 100 µM
GI50 [5]: 3.72 µM
TGI [5]: 17.7 µM
GI50 [6]: 10.2 µM
TGI [6]: > 77.6 µM
GI50 [7]: 12.2 µM
TGI [7]: > 89 µM
GI50 [8]: 18 µM
TGI [8]: > 100 µM

O=C(O)CCCCCNCc1cc2cc3c(cc2c2cc(OCc4ccccc4)ccc12)OCO3
GI50 [1]: 2 µM
TGI [1]: 5.25 µM
GI50 [2]: 2.23 µM
TGI [2]: 24.2 µM
GI50 [3]: 2.33 µM
TGI [3]: 5.23 µM
GI50 [4]: 3.38 µM
TGI [4]: 10.9 µM
GI50 [5]: 1.73 µM
TGI [5]: 3.53 µM
GI50 [6]: 4.37 µM
TGI [6]: 21.9 µM
GI50 [7]: 1.38 µM
TGI [7]: 2.98 µM

CC[C@H](C)[C@H](NC(=O)CN(C)C)C(=O)N(C)[C@H](C[C@@H](OC(C)=O)c1nc(C(=O)NC23C4C5C2C2C3C4C52C(=O)OC)cs1)C(C)C (some centres not stated)
TGI [1]: > 33.2 µM
GI50 [2]: 0.252 µM
TGI [2]: > 33.2 µM
GI50 [3]: > 10.4 µM
TGI [3]: > 33.2 µM
GI50 [4]: 4.31 µM
TGI [4]: > 33.2 µM
GI50 [5]: 0.133 µM
TGI [5]: > 33.2 µM
GI50 [6]: > 29 µM
TGI [6]: > 33.2 µM
GI50 [7]: > 33.2 µM
TGI [7]: > 33.2 µM
GI50 [8]: 0.176 µM
TGI [8]: > 33.2 µM

COc1ccc(/C=C\c2cc(OC)c(OC)c(OC)c2)cc1NC(=O)/C=C/c1cc(OC)c(OC)c(OC)c1
GI50 [1]: 4.62 µM
TGI [1]: > 100 µM
GI50 [2]: 8.52 µM
TGI [2]: > 100 µM
GI50 [3]: 5.74 µM
TGI [3]: > 100 µM
GI50 [4]: 30.8 µM
TGI [4]: > 100 µM
GI50 [5]: 3.55 µM
TGI [5]: > 100 µM
GI50 [6]: 4.15 µM
TGI [6]: > 100 µM
GI50 [7]: 3.6 µM
TGI [7]: > 100 µM
GI50 [8]: 5.94 µM
TGI [8]: > 100 µM

N#Cc1cnn(C(=O)c2nn(-c3ccc(Cl)cc3)cc2O)c1N
GI50 [1]: 0.392 µM
TGI [1]: 17.4 µM
GI50 [2]: 0.373 µM
TGI [2]: 4.06 µM
GI50 [3]: 0.61 µM
TGI [3]: 21.6 µM
GI50 [4]: 0.47 µM
TGI [4]: 10.6 µM
GI50 [5]: 1 µM
TGI [5]: 14.3 µM
GI50 [6]: 0.349 µM
TGI [6]: 7.45 µM
GI50 [7]: 0.405 µM
TGI [7]: 27.3 µM
GI50 [8]: 0.192 µM
TGI [8]: 3.43 µM

COC(=O)c1sc(-n2cnc3cc(OC)c(OC)cc32)cc1OCc1ccccc1C(F)(F)F
GI50 [1]: 9.22 µM
TGI [1]: > 25 µM
GI50 [2]: > 25 µM
TGI [2]: > 25 µM
GI50 [3]: > 25 µM
TGI [3]: > 25 µM
GI50 [4]: > 25 µM
TGI [4]: > 25 µM
GI50 [5]: > 25 µM
TGI [5]: > 25 µM
GI50 [6]: > 25 µM
TGI [6]: > 25 µM
GI50 [7]: 4.31 µM
TGI [7]: 18.1 µM
GI50 [8]: 6.2 µM
TGI [8]: > 25 µM

O=C1OC(c2ccccc2)=N/C1=C\c1ccccc1
TGI [1]: > 100 µM and 73.5 µM
TGI [2]: 85.5 µM and > 100 µM
TGI [3]: > 100 µM
TGI [4]: 59.7 µM and > 100 µM
GI50 [5]: > 100 µM and 32.8 µM
TGI [5]: > 100 µM
TGI [6]: > 100 µM and 58.2 µM
TGI [7]: > 100 µM
TGI [8]: > 100 µM

Nc1nc(SCC#CCCl)c2[nH]cnc2n1
GI50 [1]: 9.94 µM
TGI [1]: 24.3 µM
GI50 [2]: 4.11 µM
TGI [2]: 30.2 µM
GI50 [3]: 4.58 µM
TGI [3]: 17.7 µM
GI50 [4]: 7.12 µM
TGI [4]: 22.5 µM
GI50 [5]: 4.92 µM
TGI [5]: 18.1 µM
GI50 [6]: 8.02 µM
TGI [6]: 26.7 µM
GI50 [7]: 2.16 µM
TGI [7]: 10.4 µM
GI50 [8]: 3.89 µM
TGI [8]: 56.6 µM

C=C(C)[C@@H]1CC[C@]2(C(=O)O)CC[C@]3(C)[C@H](CC[C@@H]4[C@@]5(C)CCC(N)C(C)(C)[C@@H]5CC[C@]43C)[C@@H]12 (some centres not stated)
GI50 [1]: 2.49 µM
TGI [1]: 7 µM
GI50 [8]: 2.48 µM
TGI [8]: 5.38 µM

COc1cc(/C=N/NC(=O)c2cnn3c2NC(c2ccccc2)C3)ccc1OCc1ccccc1 (configuration not stated)
GI50 [1]: 1.2 µM
TGI [1]: 4.27 µM
GI50 [2]: 1.14 µM
TGI [2]: 12.2 µM
GI50 [3]: 2.11 µM
TGI [3]: 10.6 µM
GI50 [4]: 1.46 µM
TGI [4]: 11 µM
GI50 [5]: 0.43 µM
TGI [5]: 4.33 µM
GI50 [6]: 2.17 µM
TGI [6]: 21.8 µM
GI50 [7]: 1.48 µM
TGI [7]: 5.77 µM
GI50 [8]: 0.908 µM
TGI [8]: 3.3 µM

COc1ccccc1NC(=O)c1sc2ncn(CCOc3ccccc3)c(=O)c2c1C
GI50 [1]: 15.6 µM
TGI [1]: > 50 µM
GI50 [3]: 39.2 µM
TGI [3]: > 50 µM
GI50 [4]: 1.49 µM
TGI [4]: > 50 µM
GI50 [7]: > 50 µM
TGI [7]: > 50 µM
GI50 [8]: 1.37 µM
TGI [8]: 4.1 µM

CCCCCCCCCC(=O)Oc1ccc(/C(=C(/C)c2ccccc2)c2ccc(OCCN3CCCC3)cc2)cc1
GI50 [1]: 8.75 µM
TGI [1]: 17.3 µM
GI50 [2]: 8.61 µM
TGI [2]: 20.3 µM
GI50 [3]: 8.56 µM
TGI [3]: 16.5 µM
GI50 [4]: 9.23 µM
TGI [4]: 16.8 µM
GI50 [6]: 9.42 µM
TGI [6]: 18.5 µM
GI50 [7]: 7.01 µM
TGI [7]: 15.4 µM
GI50 [8]: 9.55 µM
TGI [8]: 32.2 µM

COc1cc2c3c(c4ccc(O)cc4c2cc1OC)[C@@H](O)[C@@H]1CCCN1C3
TGI [1]: 0.0421 µM
TGI [3]: 0.0454 µM
TGI [4]: 0.0588 µM
TGI [5]: 0.034 µM
TGI [6]: 0.0137 µM
TGI [7]: 0.0191 µM
TGI [8]: 0.00566 µM

C=C(CN1CCN(c2cc(C(F)(F)F)cc(C(F)(F)F)c2)CC1)c1ccc(C(=O)Nc2ccccc2N)cc1
GI50 [1]: 16.2 µM
TGI [1]: > 100 µM
GI50 [3]: 54.6 µM
TGI [3]: > 100 µM
GI50 [4]: 6.57 µM
TGI [4]: 64.9 µM
GI50 [5]: 1.91 µM
TGI [5]: 4.75 µM
GI50 [6]: 9.89 µM
TGI [6]: > 100 µM
GI50 [7]: 1.88 µM
TGI [7]: 7.45 µM
GI50 [8]: 4.81 µM
TGI [8]: 35.6 µM

CC1=C(C(=S)Nc2ccc(Cl)c(C(=O)OC(C)C)c2)SCCO1
TGI [2]: 46.6 µM
TGI [3]: > 100 µM
TGI [4]: 47 µM
TGI [5]: 32.6 µM
TGI [6]: 44.6 µM
TGI [7]: 38.5 µM
TGI [8]: 75.1 µM

COc1cc2c(c3oc4c(O)cccc4c(=O)c13)CC(C(C)(O)CCl)O2 (configuration not stated)
TGI [1]: 5.85 µM
TGI [3]: 34 µM
TGI [4]: 6.79 µM
TGI [5]: 15.9 µM
TGI [6]: 24.2 µM
TGI [7]: 10.5 µM
TGI [8]: 6.89 µM

CC1=C(\C=C/C(C)=C/C=C/C(C)=C/C=C/C=C(C)\C=C\C=C(C)/C=C/C2=C(C)CCCC2(C)C)C(C)(C)CCC1
TGI [1]: > 100 µM
TGI [2]: > 100 µM
TGI [3]: > 100 µM
TGI [4]: > 100 µM
TGI [5]: > 100 µM
TGI [6]: > 100 µM
TGI [8]: > 100 µM
